This is an account of results in article PMC5915154, “Aloe-emodin as drug candidate for cancer therapy” (Oncotarget, 2018).

The test system of assay [1] is HCT116 (p53-/-) knockout colon cancer cells. The assay can be described thus: Resazurin reduction assay, HCT116 (p53-/-). In kind it is cell-based, human. From the text:
(§1) The cell lines used in the present work, their origins and maintenance conditions were previously reported. In brief, drug-sensitive CCRF-CEM and multidrug resistant P-glycoprotein-over-expressing CEM/ADR5000 leukemia cells, MDA-MB-231-pcDNA3 breast cancer cells and their transfectant subline MDA-MB-231-BCRP clone 23, HCT116 (p53^+/+) colon cancer cells and its knockout clone HCT116 (p53^-/-), U87.MG glioblastoma multiform cells and their transfectant subline U87.MGΔEGFR as well as HEK293 human embryonic kidney cells transfected with or without a cDNA for ABCB5 were used. The human peripheral mononuclear cells (PMNC) were isolated from fresh blood samples of a healthy donor by using Histopaque® (Sigma-Aldrich, Taufkirchen, Germany).
(§2) Resazurin reduction assay was conducted to test the cytotoxicity of the compounds. This assay is based on the reduction of resazurin to resorufin by viable cells. […] Briefly, aliquots of 0.5×10^4 adherent cells which were allowed to attach overnight and 1×10^4 suspension cells per well were seeded in 96-well-plates with or without the addition of varying concentrations of the test substance to get a total volume of 200 μL/well. After 72 h incubation and addition of resazurin (Sigma-Aldrich) for 4 h, staining was measured by an Infinite M2000 ProTM plate reader (Tecan, Germany) using an excitation wavelength of 544 nm and an emission wavelength of 590 nm. […]

In assay [2] the test system is U87.MG glioblastoma cells. Briefly: Resazurin reduction assay, U87.MG. It is filed as cell-based. The note with it: Homo sapiens, U-87 MG, 72 h.
Description: as §1, §2
In general terms: The colour change of resazurin is a common sign of viable cells or microbes.

For assay [3], the system named is MDA-MB-231-BCRP clone 23 cells. The assay can be described thus: Resazurin reduction assay, MDA-MB-231-BCRP clone 23. The note with it: Homo sapiens; MDA-MB-231-BCRP clone 23, resazurin assay, 72 h. In kind it is cell-based.
Description: as §1, §2

A further assay has as its system HEK293-ABCB5 cells. The assay can be described thus: Resazurin reduction assay, HEK293-ABCB5. In kind it is cell-based. Conditions: Homo sapiens, 72 h.
Description: as §1, §2

In the next assay the test system is drug-resistant sublines. The assay can be described thus: Resazurin reduction assay, range over drug-resistant and/or transfected sublines. It is filed as cell-based. Conditions: Homo sapiens.
Description: as §1, §2

Assay [4] deals with CCRF-CEM cells. The assay can be described thus: Protease viability marker assay (GF-AFC). It is filed as cell-based. Conditions: Homo sapiens, 72 h. On the procedure: The protease viability marker assay was performed to exclude the possibility that the cytotoxicity of Aloe-emodin measured by the resazurin assay was artificially influenced by any non-intended interaction with Aloe-emodin-induced ROS generation. The assay measures the protease activity within living cells. The protease activity is restricted to intact viable cells and is measured using a flourogenic, cell permeant, peptide substrate (glyxyl-phenylalanyl-aminoflourocoumarin; GF-AFC). The substrate enters intact cells, where it is cleaved by proteases to generate a fluorescent signal proportional to the number of living cells. Briefly, CCRF-CEM cells (2×10^4cells/well) were seeded in 96 well plate. Aloe-emodin was added in a dose dependent manner (0.001 – 100 μM). After 72 h, 100 μL of GF-AFC substrate (Promega, Madison, USA) were added to each well, cells were incubated for 30 min at 37°C. Using Infinite M2000Pro™ plate reader (Tecan, Crailsheim, Germany), the fluorescent intensity was measured at an excitation wavelength 400 nm, and emitted light was collected at 505 nm.

The subject of assay [5] is CCRF-CEM cells. The assay can be described thus: Detection of reactive oxygen species (H2DCFH-DA, flow cytometry). In kind it is cell-based, human. On the procedure:
2′,7′-Dichlorofluorescin diacetate (H2DCFH-DA, Sigma-Aldrich) is a cell-permeable non-fluorescent probe used to detect cellular ROS levels. In the presence of ROS, the compound is de-esterified intracellularly and converts into the highly fluorescent 2′,7′-dichlorofluorescein upon oxidation. Thus, it can be measured by flow cytometry. CCRF-CEM cells were re-suspended in PBS and incubated for 30 min withH2DCFH-DA at a concentration of 2 μM. After washing with PBS, the cells were treated with DMSO as negative control, H2O2 and doxorubicin as positive controls or varying concentrations of Aloe-emodin (0.5-, 1-, 2- and 4-fold IC50) for 1 h. The results were assessed by a BD Accuri™ C6 flow cytometer (Becton Dickinson) using FL-1 the channel (488 nm excitation). For each sample, 10^4 cells were counted. The protocol has been recently reported by us.
In general terms: Flow cytometry measures light scatter and fluorescence of single cells or particles in a stream.

Assay [6] concerns mRNA expression (DUSP6, HHEX, MCMDC2, CRCP) in CCRF-CEM cells. The assay can be described thus: Microarray-based mRNA expression profiling. It is filed as cell-based, human. Conditions: CCRF-CEM treated with IC50 for 48 h vs DMSO; FC: fold change. As to the method: We performed microarray hybridizations to find clues on the possible mechanisms of action of Aloe-emodin. CCRF-CEM cells were treated with the IC50 of Aloe-emodin or DMSO for 48 h. Using Chipster software, 1712 genes were deregulated upon Aloe-emodin treatment in comparison with DMSO treatment as control. These genes were subsequently subjected to Ingenuity Pathway Analysis (IPA) to obtain profiles of possibly affected signaling pathways. The most pronounced molecular and cellular functions identified by IPA were: cell death and survival, cellular growth and proliferation, cellular development, gene expression, cellular function and maintenance (Figure 4A).
Total RNA was isolated by InviTrap Spin Universal RNA Mini kit (Stratec Molecular, Berlin, Germany) according to the manufacturer’s instructions. The quality control of total RNA, probe labeling, hybridization, scanning and data analysis was performed in the Genomics and Proteomics Core Facility at the German Cancer Research Center (DKFZ, Heidelberg, Germany). Details have been previously described. The Chipster software was used to filter the set of differentially expressed genes obtained from microarray hybridization (http://chipster.csc.fi/) with a p value lower than 0.05. These filtered genes with fold-changes of more than 1-fold were selected for Ingenuity Pathways Analysis Software (http://www.ingenuity.com/ Ingenuity Systems, Redwood City, CA, USA) to obtain profiles of genetic networks and signaling pathways. The protocol has been recently reported by us.

The structures appear in SMILES notation.

A word on the IC50: it is the concentration at which inhibition is half-maximal. Consider `O=C1c2cccc(O)c2C(=O)c2c(O)cc(CO)cc21` [Aloe-emodin], for which, in assay [1] (HCT116 (p53-/-) knockout cells vs HCT116 (p53+/+)), the “degree of resistance (collateral sensitivity)” value is listed as 0.68 fold. In addition, the IC50 in assay [1] (Homo sapiens, HCT-116, HCT116(p53-/-), resazurin assay, 72 h) was 11.2 µM; in assay [2], 21.7 µM; in assay [3], 26.9 µM; with HEK293-ABCB5 cells, 25.9 µM; with drug-resistant sublines, 11.2 to 33.8 µM; in the assay with CCRF-CEM cells [4], 13.8 µM. Also, the “ROS production, fold changes” value with CCRF-CEM cells [5] (0.5-, 1-, 2- or 4-fold IC50, 1 h, dose-dependent) is at least 1.5 fold. Also, in the assay with CCRF-CEM cells [5] (1 h, vs doxorubicin (1 μM) or H2O2 (250 μM)), the “ROS generation compared with positive controls” value is reported as “even higher ROS generation than doxorubicin”. The “Microarray data (FC), CRCP” value in assay [6] is on record as -2.219 FC. Besides, the “Microarray data (FC), DUSP6” value in assay [6] is recorded as 2.403 FC. For the same compound, the “Microarray data (FC), HHEX” value in assay [6] is recorded as 2.321 FC. For the same compound, the “Microarray data (FC), MCMDC2” value in assay [6] was -2.227 FC.
